The values below come from patent US20220089609A1, “SUBSTITUTED QUINAZOLINONE DERIVATIVES AND THEIR USE AS POSITIVE ALLOSTERIC MODULATORS OF MGLUR4” (DOMAIN THERAPEUTICS, priority 2018, published 2022).

The target in one series is T1, human mGluR4 (hmGluR4) (Homo sapiens, UniProt Q14833).
T1 construct: expressed in transfected cells; host or cells: HEK-293 cells, transient co-transfection by electroporation
In words: Calcium assay EC50 determination, positive allosteric modulator activity on hmGluR4 transiently over-expressed in HEK-293 cells. Format: cell-based. The note with it: PAM mode with EC20 glutamate; hmGluR4 in HEK-293 cells; intracellular calcium (Fluo4AM); read-out: mGluR4 positive allosteric modulator activity, half maximal effective concentration (EC50). Put shortly: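 HEK-293 cells transiently co-transfected with hmGluR4, chimeric G protein and glutamate transporters; Fluo4AM calcium read (ex 485/em 525 nm) on FLIPR Tetra. Compound alone 10 min for agonism, then EC20 glutamate with 3 min recording for PAM activity, versus buffer or EC20 glutamate basal.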
(Calcium flux is commonly read through the fluorescence of an indicator in the cells.)

Series [1] deals with haloperidol-induced catalepsy. In words: Haloperidol-induced catalepsy model in the mouse (bar test). Format: in vivo. As to conditions: 1 mg/kg per os 60 minutes after haloperidol (1 mg/kg i.p.), measured between 135 and 270 min after haloperidol injection. As for the experimental part: This method, which detects anti-cataleptic activity, follows those well-known by one skilled in the art and described in the literature (e.g. Pires et al., Braz J Med and Biol Res 38, 1867-1872, 2005; Shiozaki et al., Psychopharmacology 147, 90-95, 1999). Catalepsy is a symptom of Parkinson's disease, and is characterized by muscular rigidity and fixity of posture.
The procedure applied to the compounds of the invention is as follows:
Catalepsy is assessed using the bar test in mice submitted to acute administration of haloperidol (1 mg/kg, intra-peritoneal or i.p.). Mice (male RjOrl:SWISS mice, weighing 30-35 g at the beginning of the experiment) were placed (6 to 9 in each group) in Plexiglas cages, and injected with haloperidol (1 mg/kg i.p.). The catalepsy response of one mouse was measured when the animal maintained an imposed posture with both forelimbs placed on a horizontal 0.9 cm diameter wire bar suspended 4 cm above a platform. The end point of catalepsy was considered to occur when both forelimbs were removed from the bar, the mouse climbed onto the bar or if the animal moved its head in an exploratory manner. A cut-off time of 180 seconds was applied. The degree of catalepsy was scored 45 minutes after haloperidol administration and continued at 45 minutes intervals for a total of 270 minutes. Between determinations, the animals were returned to their home cages.
Compounds 81, 100, 114, 119, 143 and 144 were evaluated at 1 mg/kg, administered per os, 60 minutes after haloperidol, and compared with a vehicle control group.
The anti-cataleptic effect of the compound was compared to vehicle-treated group using ANOVA test followed by the Dunnett's test.

Structures can show the parent of a compound that is named as a salt.

T1 sequence (Q14833 33-912): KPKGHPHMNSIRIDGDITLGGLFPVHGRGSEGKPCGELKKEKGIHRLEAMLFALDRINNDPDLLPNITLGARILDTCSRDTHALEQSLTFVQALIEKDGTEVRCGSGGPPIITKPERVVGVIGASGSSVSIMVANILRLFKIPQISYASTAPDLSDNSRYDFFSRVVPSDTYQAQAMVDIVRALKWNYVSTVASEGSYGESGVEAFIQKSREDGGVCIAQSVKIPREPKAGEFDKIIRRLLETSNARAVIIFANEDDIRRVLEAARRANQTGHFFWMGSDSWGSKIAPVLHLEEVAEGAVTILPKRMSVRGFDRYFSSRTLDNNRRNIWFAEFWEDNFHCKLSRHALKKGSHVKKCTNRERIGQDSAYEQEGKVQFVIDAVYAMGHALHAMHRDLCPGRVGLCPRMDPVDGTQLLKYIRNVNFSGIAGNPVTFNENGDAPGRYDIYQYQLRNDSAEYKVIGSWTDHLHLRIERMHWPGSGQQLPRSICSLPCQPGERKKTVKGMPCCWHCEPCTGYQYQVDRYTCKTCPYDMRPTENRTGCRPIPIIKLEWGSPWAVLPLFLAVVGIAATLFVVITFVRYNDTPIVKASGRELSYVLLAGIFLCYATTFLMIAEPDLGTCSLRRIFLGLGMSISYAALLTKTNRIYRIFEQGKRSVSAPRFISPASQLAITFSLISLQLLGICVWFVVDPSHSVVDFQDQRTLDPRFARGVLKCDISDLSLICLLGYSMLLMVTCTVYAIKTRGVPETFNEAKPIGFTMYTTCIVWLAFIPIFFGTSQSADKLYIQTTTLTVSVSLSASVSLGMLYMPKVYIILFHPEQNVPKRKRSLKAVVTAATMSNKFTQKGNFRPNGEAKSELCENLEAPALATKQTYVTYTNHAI

With `Cc1cc(CCN2CCOCC2)cc2c(=O)[nH]c(-c3cc4ccsc4cn3)nc12` [Compound 100, 8-methyl-6-(2-morpholin-4-yl-ethyl)-2-thieno[2,3-c]pyridin-5-yl-3H-quinazolin-4-one hydrochloride], the EC50 at human mGluR4 (hmGluR4) is ≤ 100 nM. The “anti-cataleptic effect (mean time of latency spent on the bar) compared to vehicle-treated group” value in series [1] was “significant anti-cataleptic effect”.
In general, melting point refers to the temperature of the solid-liquid transition. Consider `Cc1cc(OC2CCC(=O)N(C)C2)cc2c(=O)[nH]c(-c3cc4ccsc4cn3)nc12` (stereo not shown) [Compound 81, 8-Methyl-6-(1-methyl-6-oxo-piperidin-3-yloxy)-2-thieno[2,3-c]pyridin-5-yl-3H-quinazolin-4-one], for which the melting point was in the range of 221 to 225 °C. Further, on human mGluR4 (hmGluR4), the EC50 is ≤ 100 nM. Further, the “anti-cataleptic effect (mean time of latency spent on the bar) compared to vehicle-treated group” value in series [1] is “significant anti-cataleptic effect”.
Taken in the same sequence, the figures for `Cc1cc(CN2CCOCC2)cc2c(=O)[nH]c(-c3cc4sccc4cn3)nc12.Cl` [Compound 119, 8-Methyl-6-(morpholinomethyl)-2-(thieno[3,2-c]pyridin-6-yl)quinazolin-4(3H)-one hydrochloride] were > 250 °C, ≤ 100 nM and “significant anti-cataleptic effect”.
Regarding `Cc1cc(CN2CCOCC2)cc2c(=O)[nH]c(-c3cc4ccsc4cn3)nc12` [Compound 114, 8-methyl-6-(morpholinomethyl)-2-thieno[2,3-c]pyridin-5-yl-3H-quinazolin-4-one hydrochloride], the EC50 at human mGluR4 (hmGluR4) was ≤ 100 nM. In addition, the “anti-cataleptic effect (mean time of latency spent on the bar) compared to vehicle-treated group” value in series [1] is on record as “significant anti-cataleptic effect”.
Regarding `Cc1cc(CCN2CCN(C)C(=O)C2)cc2c(=O)[nH]c(-c3cc4sccc4cn3)nc12.Cl` [Compound 143, 8-Methyl-6-[2-(4-methyl-3-oxo-piperazin-1-yl)ethyl]-2-thieno[3,2-c]pyridin-6-yl-3H-quinazolin-4-one hydrochloride], the melting point is > 250 °C. The EC50 at human mGluR4 (hmGluR4) was ≤ 100 nM. For the same compound, the “anti-cataleptic effect (mean time of latency spent on the bar) compared to vehicle-treated group” value in series [1] is on record as “significant anti-cataleptic effect”.
